Measurements taken from EP4772500A1, “NOVEL ISOXAZOLE COMPOUND AS TM4SF5-SPECIFIC INHIBITOR AND USE THEREOF” (Seoul National University R&DB Foundation, priority 2023, dated 2025).

Legend:
[1] = system: SNU449-TM4SF5 and Huh7-Con; experiment: qRT-PCR/Western blotting of laminin γ2, AFP and liver cancer markers in TM4SF5-expressing hepatocytes; format: cell-based, human; conditions: 2.5 µM, 24 hours (FIG. 8h-i)
SNU449-TM4SF5 cells = experiment: Western blotting of NK cell stimulatory ligands; format: cell-based, human; conditions: SNU449-TM4SF5, given concentration, 24 hours (FIG. 13c)
Method: Cell extracts were obtained from cells grown to a density of 70-80% without any treatment, or from cells treated with vehicle DMSO or drugs at the given concentrations for 24 hours. For the extract of hepatocytes or liver cancer cells, a lysis buffer (150 mM NaCl, 1% NP-40, 50 mM Tris-HCl, 0.25% sodium deoxycholate, pH 7.4) including a protease inhibitor cocktail (GenDEPOT) was used. In addition, after washing animal liver tissue twice with PBS, SDS, Na3VO4, and protease inhibitor cocktails (GenDEPOT) were added to a lysis buffer [50 mM Tris-HCl, pH 7.4, 1% NP40, 0.25% sodium deoxycholate, 150 mM NaCl, 1 mM EDTA (based on 500 ml)], followed by treatment at 4°C for 15 minutes. […] After quantification using BCA reagent (Thermo Scientific), a 4 × sample buffer [100% glycerol 4 ml, Tris-HCl, pH 6.8, 2.4 ml, SDS 0.8 g, Bromophenol blue 4 mg, betamercaptoethanol 0.4 ml, H2O 3.1 ml (based on 10 ml)] was added, followed by boiling at 100°C for 5 minutes. […]
After 24 hours, vehicle DMSO, drug ST-1-025, or ST-5-002 was treated at the given concentrations. […] (f) After treating NK92-EV or NK92-TM4SF5 cells with DMSO or drugs ST-2-001 (1 nM), ST-3-005 (10 nM or 1 µM), ST-5-001, or ST-5-002 (100 nM or 1 µM) for 24 hours, the expression of SLAMF7 expressed on the cell surface was analyzed through immunostaining using flow cytometry. […]

expression of the stimulatory ligands (MICA/B, SLAMF6, and SLAMF7) (SNU449-TM4SF5 cells)	Compound	elevated expressions of laminin γ2, AFP, phosphorylation of STAT3, FUCA and CD34 [1]
	Cc1ccc(C(=O)Nc2ccc(-c3cc(-c4ccc(O)cc4)no3)cc2)cc1 [ST-5-002, N-(4-(3-(4-hydroxyphenyl)isoxazole-5-yl)phenyl)-4-methylbenzamide]	inhibited
increased again	COc1ccc(-c2cc(-c3ccc(N)cc3)no2)cc1 [ST-1-025, 4-(5-(4-methoxyphenyl)isoxazole-3-yl)aniline]	
